SMILES strings stand for the structures.

A short description of this assay: Inhibitory concentration for heterotrimeric G protein, transducer.
Compound `CCC(=O)O[C@H]1[C@@H](O)[C@H](n2cnc3c(O)nc(N)nc32)O[C@@H]1COP(=O)(O)NP(=O)(O)O` displayed an IC50 of 500 µM.

On to `NCCOCCOc1nc(N)nc2c1ncn2C1O[C@H](COP(=O)(O)NP(=O)(O)O)[C@@H](O)[C@H]1O` (stereo partly drawn), for which the IC50 is more than 1000 µM.

In turn, `Nc1nc(O)c2ncn(C3O[C@H](COP(=O)(O)NP(=O)(O)O)[C@@H](O)[C@H]3O)c2n1` (stereo partly drawn) showed an IC50 of 12 µM.

`NCCOCCOCCn1c(N)nc2c(ncn2C2O[C@H](COP(=O)(O)NP(=O)(O)O)[C@@H](O)[C@H]2O)c1=O` (stereo partly drawn): the IC50 was more than 1000 µM.

The compound `Nc1nc2c(ncn2[C@@H]2O[C@H](COC(=O)CP(=O)(O)O)C(O)C2O)c(=O)[nH]1` (single isomer, unassigned) showed an IC50 of more than 1000 µM.

`Nc1nc(O)c2ncn(C3O[C@H](COP(=O)(O)CC(=O)O)C(O)C3O)c2n1` (single isomer, unassigned) showed an IC50 of more than 1000 µM.

Take `Nc1nc(O)c2ncn(C3O[C@H](COC(=O)CC(=O)O)C(O)C3O)c2n1` (single isomer, unassigned): the concentration for half-maximal inhibition (IC50) was more than 1000 µM.

For `Nc1nc2c(ncn2[C@@H]2O[C@H](COP(=O)(O)CP(=O)(O)O)C(O)C2O)c(=O)[nH]1` (single isomer, unassigned) [PHOSPHOMETHYLPHOSPHONIC ACID GUANOSYL ESTER], the IC50 was more than 1000 µM.

The values are drawn from ChEMBL document CHEMBL1134257, “Probing the transducin nucleotide binding site with GDP analogues” (Bioorg Med Chem Lett, 2001).
